Measurements taken from the NIST ThermoML archive (doi:10.1021/je0501585).
Numbers after ± are expanded uncertainties.

Legend:
[1] = Liquid; for viscosity / speed of sound: 101 kPa; for viscosity: Capillary tube (Ostwald / Ubbelohde) method; for speed of sound: Linear variable-path acoustic interferometer; for mass density: 101.33 kPa, Pycnometric method
[2] = xn = mol fraction of the nth substance listed; conditions: 101 kPa, Liquid, x2 = 0; for viscosity: Capillary tube (Ostwald / Ubbelohde) method; for excess molar volume: Direct dilatometry; for speed of sound: Linear variable-path acoustic interferometer

Structure (SMILES) | viscosity ([1]; 303.15 K) | speed of sound ([1]; 303.15 K) | mass density ([1]; 303.15 K) | viscosity ([1]; 308.15 K) | speed of sound ([1]; 308.15 K) | mass density ([1]; 308.15 K) | viscosity ([1]; 313.15 K) | speed of sound ([1]; 313.15 K) | mass density ([1]; 313.15 K) | vapor or sublimation pressure ([1]; 410 K) | vapor or sublimation pressure ([1]; 445.7 K) | viscosity ([2]; 303.15 K) | excess molar volume ([2]; 303.15 K) | speed of sound ([2]; 303.15 K) | viscosity ([2]; 308.15 K) | excess molar volume ([2]; 308.15 K) | speed of sound ([2]; 308.15 K) | viscosity ([2]; 313.15 K) | excess molar volume ([2]; 313.15 K) | speed of sound ([2]; 313.15 K)
Cc1ccc(C)cc1 [1,4-dimethylbenzene] | 0.566 ± 0.016 mPa·s | 1283.7 ± 5.2 m/s | 852.3 ± 2.3 kg/m3 | 0.537 ± 0.015 mPa·s | 1271 ± 5.2 m/s | 847.9 ± 2.3 kg/m3 | 0.513 ± 0.015 mPa·s | 1260 ± 5.2 m/s | 843.6 ± 2.2 kg/m3 | 97.3 ± 4.9 kPa |  |  |  |  |  |  |  |  |  | 
CCCCCCCCCC [decane] | 0.786 ± 0.021 mPa·s | 1210 ± 5.2 m/s | 722.3 ± 1.9 kg/m3 | 0.717 ± 0.019 mPa·s | 1189 ± 5.2 m/s | 718.2 ± 1.9 kg/m3 | 0.694 ± 0.019 mPa·s | 1175.3 ± 5.2 m/s | 714.7 ± 1.9 kg/m3 |  | 97.3 ± 4.9 kPa |  |  |  |  |  |  |  |  | 
CCCCCCCCCC [decane] + Cc1ccc(C)cc1 |  |  |  |  |  |  |  |  |  |  |  | 0.786 ± 0.021 mPa·s | 0 ± 6e-09 m3/mol | 1210 ± 5.2 m/s | 0.717 ± 0.019 mPa·s | 0 ± 6e-09 m3/mol | 1189 ± 5.2 m/s | 0.694 ± 0.019 mPa·s | 0 ± 6e-09 m3/mol | 1175.3 ± 5.2 m/s
